Reference: patent US10676429B2, “Sulfamoyl-arylamides and the use thereof as medicaments for the treatment of hepatitis B” (priority 2012, dated 2020)

Assays:
[1] = system: HBV; experiment: Anti-HBV activity in stable transfected HepG2.2.15 cell line (HBV DNA from secreted virions, realtime PCR); type: cell-based; conditions: HepG2.2.15 cells, 6 days of treatment, secreted virion HBV DNA, read-out: HepG2 2.15 EC50
[2] = system: HBV; experiment: Anti-HBV activity in HepG2.117 cell line (Tet-off, intracellular HBV DNA, realtime PCR); type: cell-based; conditions: HepG2.117 cells, 3 days of treatment, intracellular HBV DNA, read-out: HepG2 117 EC50
[3] = Cytotoxicity in HepG2 cells, 4 days, Resazurin assay; conditions: human, HepG2 cells
[4] = Hepatitis B virus, HepG2.117, 72 h

Row | Structure (SMILES) | EC50 [1] | EC50 [2] | CC50 at 4 days [3] | EC50 [2, 4] | EC50 ([1]; Hepatitis B virus, HepG2.2.15, 144 h)
1 | COC(=O)N1CCCC(NS(=O)(=O)c2cccc(C(=O)Nc3ccc(F)c(C)c3)c2)C1 (racemic) [Compound 159a] | 170 nM | 860 nM |  |  | 
2 | COC(=O)N1CCCC(NS(=O)(=O)c2cccc(C(=O)Nc3ccc(F)c(C)c3)c2)C1 (racemic) [Compound 159b] | 160 nM | 230 nM |  |  | 
3 | Cc1cc(NC(=O)c2cccc(S(=O)(=O)NC3CC(=O)N(C)C3)c2)ccc1F (racemic) [Compound 179] |  |  | > 25000 nM |  | 
4 | Cc1cc(NC(=O)c2cccc(S(=O)(=O)NC3CCCC(O)C3)c2)ccc1F (single isomer, unassigned) [Compound 134a, N-(4-fluoro-3-methyl-phenyl)-3-[[(1R,3S)-3-hydroxycyclohexyl]sulfamoyl]benzamide or N-(4-fluoro-3-methyl-phenyl)-3-[[(1S,3R)-3-hydroxycyclohexyl]sulfamoyl]benzamide] | 660 nM | 720 nM |  |  | 
5 | Cc1cc(NC(=O)c2cccc(S(=O)(=O)NC3CCCC(O)C3)c2)ccc1F (single isomer, unassigned) [Compound 134b, N-(4-fluoro-3-methyl-phenyl)-3-[[(1R,3S)-3-hydroxycyclohexyl]sulfamoyl]benzamide or N-(4-fluoro-3-methyl-phenyl)-3-[[(1S,3R)-3-hydroxycyclohexyl]sulfamoyl]benzamide] | 570 nM | 200 nM |  |  | 
6 | Cc1cc(NC(=O)c2cccc(S(=O)(=O)NC3CCCC(O)C3)c2)ccc1F (single isomer, unassigned) [Compound 134c, N-(4-fluoro-3-methyl-phenyl)-3-[[(1R,3R)-3 hydroxycyclohexyl]sulfamoyl]benzamide or N-(4-fluoro-3-methyl-phenyl)-3-[[(1S,3S)-3-hydroxycyclohexyl]sulfamoyl]benzamide] | 490 nM | 380 nM |  |  | 
7 | Cc1cc(NC(=O)c2cccc(S(=O)(=O)NC3CCCC(O)C3)c2)ccc1F (single isomer, unassigned) [Compound 134d, N-(4-fluoro-3-methyl-phenyl)-3-[[(1R,3R)-3 hydroxycyclohexyl]sulfamoyl]benzamide or N-(4-fluoro-3-methyl-phenyl)-3-[[(1S,3S)-3-hydroxycyclohexyl]sulfamoyl]benzamide] | 250 nM | 1220 nM |  |  | 
8 | O=C(Nc1ccccc1)c1csc(S(=O)(=O)NC2CCCCC2)n1 [Compound 64] |  |  | > 25000 nM | 7830 nM | 
9 | CC1(NS(=O)(=O)c2cccc(C(=O)Nc3ccc(F)cc3)c2)CCOCC1 [Compound 83] |  |  |  | 1230 nM | 1040 nM
10 | Cc1cc(NC(=O)c2cccc(S(=O)(=O)NC3CCCC(O)C3)c2)ccc1F (centres unmarked) [Compound 134] |  | 570 nM | > 25000 nM |  | 
11 | Cc1c(Br)cc(S(=O)(=O)N[C@H]2CCOC2)c(F)c1C(=O)Nc1ccc(F)c(F)c1 [Compound 187] |  |  | > 25000 nM | 950 nM | 
12 | Cc1ccc(S(=O)(=O)N[C@H]2CCOC2)c(F)c1C(=O)Nc1ccc(F)c(F)c1 [Compound 188] |  |  | > 25000 nM | 240 nM | 
13 | Cc1cc(NC(=O)c2c(C)ccc(S(=O)(=O)N[C@H]3CCOC3)c2F)ccc1F [Compound 189] |  |  | > 25000 nM | 350 nM | 
14 | Cc1cc(NC(=O)c2c(C)c(Br)cc(S(=O)(=O)NC3(C)COC3)c2F)ccc1F [Compound 190] |  |  | > 25000 nM | 270 nM | 
15 | Cc1ccc(S(=O)(=O)NC2(C)COC2)c(F)c1C(=O)Nc1cc(F)c(F)c(Cl)c1 [Compound 192] |  |  | > 25000 nM | 190 nM | 
16 | Cc1ccc(S(=O)(=O)N[C@H](C)C(F)(F)F)c(F)c1C(=O)Nc1cc(F)c(F)c(Cl)c1 [Compound 193] |  |  | 13500 nM | 100 nM | 
17 | Cc1cc(NC(=O)c2c(F)ccc(S(=O)(=O)N[C@H]3CCOC3)c2F)ccc1F [Compound 197] |  |  | > 25000 nM | 90 nM | 
18 | O=C(Nc1ccc(F)c(Br)c1)c1c(F)ccc(S(=O)(=O)N[C@H]2CCOC2)c1F [Compound 198] |  |  | > 25000 nM | 150 nM | 
19 | N#Cc1cc(NC(=O)c2c(F)ccc(S(=O)(=O)N[C@H]3CCOC3)c2F)ccc1F [Compound 199] |  |  | > 25000 nM | 430 nM | 
20 | O=C(Nc1ccc(F)c(C(F)(F)F)c1)c1c(F)ccc(S(=O)(=O)N[C@H]2CCOC2)c1F [Compound 200] |  |  | > 25000 nM | 450 nM | 

Row | Structure (SMILES) | EC50 [1] | EC50 [2] | CC50 at 4 days [3] | EC50 [2, 4] | EC50 ([1]; Hepatitis B virus, HepG2.2.15, 144 h)
21 | CC(C)NS(=O)(=O)c1ccc(F)c(C(=O)Nc2ccc(F)c(F)c2)c1F [Compound 202] |  |  | > 25000 nM | 110 nM | 
22 | CC(C)NS(=O)(=O)c1ccc(F)c(C(=O)Nc2cccc(C(F)(F)F)c2)c1F [Compound 203] |  |  | 16700 nM | 240 nM | 
23 | Cc1cc(NC(=O)c2c(C)ccc(S(=O)(=O)NC3(C)COC3)c2F)ccc1F [Compound 204] |  |  | > 25000 nM | 90 nM | 
24 | Cc1cc(NC(=O)c2c(C)ccc(S(=O)(=O)NC(C)(C)C)c2F)ccc1F [Compound 205] |  |  | > 25000 nM | 350 nM | 
25 | Cc1ccc(S(=O)(=O)NC(C)(C)C)c(F)c1C(=O)Nc1ccc(F)c(F)c1 [Compound 206] |  |  | > 25000 nM | 640 nM | 
26 | CC1(NS(=O)(=O)c2ccc(Cl)c(C(=O)Nc3ccc(F)c(C#N)c3)c2F)COC1 [Compound 207] |  |  | > 25000 nM | > 1000 nM | 
27 | CC1(NS(=O)(=O)c2ccc(Cl)c(C(=O)Nc3ccc(F)c(C(F)(F)F)c3)c2F)COC1 [Compound 208] |  |  | > 25000 nM | > 1000 nM | 
28 | Cc1cc(NC(=O)c2c(Cl)ccc(S(=O)(=O)NC3(C)COC3)c2F)cc(F)c1F [Compound 209] |  |  | > 25000 nM | 150 nM | 
29 | CC1(NS(=O)(=O)c2ccc(Cl)c(C(=O)Nc3cc(F)c(F)c(Cl)c3)c2F)COC1 [Compound 210] |  |  | > 25000 nM | 460 nM | 
30 | CC1(NS(=O)(=O)c2ccc(F)c(C(=O)Nc3ccc(F)c(F)c3)c2Cl)COC1 [Compound 211] |  |  | > 25000 nM | 650 nM | 
31 | CC1(NS(=O)(=O)c2ccc(F)c(C(=O)Nc3ccc(F)c(C(F)(F)F)c3)c2Br)COC1 [Compound 212] |  |  | > 25000 nM | 7300 nM | 
32 | Cc1cc(NC(=O)c2c(Br)ccc(S(=O)(=O)NC3(C)COC3)c2F)ccc1F [Compound 213] |  |  | > 25000 nM | 280 nM | 
33 | CC1(NS(=O)(=O)c2ccc(Br)c(C(=O)Nc3ccc(F)c(C#N)c3)c2F)COC1 [Compound 214] |  |  | > 25000 nM | > 1000 nM | 
34 | CC1(NS(=O)(=O)c2ccc(Br)c(C(=O)Nc3ccc(F)c(C(F)(F)F)c3)c2F)COC1 [Compound 215] |  |  | > 25000 nM | > 1000 nM | 
35 | Cc1cc(NC(=O)c2c(Br)ccc(S(=O)(=O)NC3(C)COC3)c2F)cc(F)c1F [Compound 216] |  |  | > 25000 nM | 290 nM | 
36 | CC1(NS(=O)(=O)c2cccc(C(=O)Nc3ccc(F)c(C(F)(F)F)c3)c2F)COC1 [Compound 219] |  |  | > 25000 nM | 460 nM | 
37 | Cc1cc(NC(=O)c2cccc(S(=O)(=O)NC(C)(C)C)c2F)ccc1F [Compound 221] |  |  | > 25000 nM | 130 nM | 
38 | Cc1cc(NC(=O)c2cccc(S(=O)(=O)NC3(C)CCOC3)c2)ccc1F (centres unmarked) [Compound 223] |  |  | > 25000 nM | 210 nM | 
39 | Cc1cc(NC(=O)c2cc(S(=O)(=O)NC3(C)COC3)ccc2Cl)ccc1F [Compound 232] |  |  | > 25000 nM | 310 nM | 
